{
  "source": "patent US20230330133A1",
  "about": "“METHODS FOR THE TREATMENT OF CHOLESTEROL CRYSTAL EMBOLIZATION WITH CYCLODEXTRINS” (Beren Therapeutics P.B.C., priority 2020, published 2023)",
  "key": {"ABCA1": {"tested_on": "ABCA1", "conditions": "peripheral blood, human subject, i.v. 500-1,000 mg/kg every 4 weeks; FIGS. 3A-3D", "experimental": "(§1) A human subject was treated with 2-hydroxypropyl-beta-cyclodextrin with single-ascending doses administered intravenously every 4 weeks according to Table 1 below.\n(§2) In this Example, a human subject was treated with 2-hydroxypropyl-beta-cyclodextrin according to Example 1, and mRNA levels of the LXR transcription factor-regulated genes, ABCA1 and ABCG1, were measured. […] ABCA1 and ABCG1 are important cholesterol transporters and are responsible for cholesterol efflux from cells, loading of HDL particles for reverse cholesterol transport (RCT), and excretion via the hepatic pathway, to potentially reduce the cholesterol and cholesterol crystal emboli released into the vasculature and stabilize ruptured atherosclerotic plaque."}, "ABCG1": {"tested_on": "ABCG1", "conditions": "peripheral blood, human subject, i.v. 500-1,000 mg/kg every 4 weeks; FIGS. 3A-3D", "experimental": "as §1, §2"}, "[1]": {"conditions": "pre-dose human plasma incubated ex vivo with the substance; FIG. 1B", "experimental": "For each dose, whole blood was collected pre-dose, post-dose (line flush), 1 hour post-dose, and 24 hours post-dose. Plasma was separated from the whole blood and subjected to a cholesterol crystal dissolution capacity (CCDC) assay using techniques similar to those described in the literature. The CCDC assay measures the ability of a sample to dissolve cholesterol crystals.\nBlood plasma pre-dose was also incubated ex vivo with 2-hydroxypropyl-beta-cyclodextrin and the ability of the plasma to dissolve cholesterol crystals was measured."}, "[2]": {"conditions": "human subject, single-ascending i.v. doses 500-1,000 mg/kg every 4 weeks; after treatment vs pre-dose; FIG. 1A", "experimental": "A human subject was treated with 2-hydroxypropyl-beta-cyclodextrin with single-ascending doses administered intravenously every 4 weeks according to Table 1 below. […] For each dose, whole blood was collected pre-dose, post-dose (line flush), 1 hour post-dose, and 24 hours post-dose. Plasma was separated from the whole blood and subjected to a cholesterol crystal dissolution capacity (CCDC) assay using techniques similar to those described in the literature. The CCDC assay measures the ability of a sample to dissolve cholesterol crystals."}, "[3]": {"conditions": "human subject, i.v. 500-1,000 mg/kg every 4 weeks, FIGS. 2A-2C", "experimental": "as §1\nIn this Example, a human subject was treated with 2-hydroxypropyl-beta-cyclodextrin according to Example 1, and plasma levels of 24S-hydroxycholesterol and 27-hydroxycholesterol were measured. […] 27-hydroxycholesterol is an endogenous LXR ligand leading to a downstream anti-inflammatory gene signature which may, in some embodiments, address the detrimental inflammatory response via NLRP3 inflammasome effects of cholesterol crystal embolization. The elevated 27-hydroxycholesterol is also a cellular marker of macrophage activation and increased activity for cholesterol crystal phagocytosis and clearance."}},
  "data": [
    {"substance": "2-hydroxypropyl-beta-cyclodextrin", "values": [
      {"measurement": "mRNA levels of ABCA1", "setting": "ABCA1", "value": "increased"},
      {"measurement": "mRNA levels of ABCG1", "setting": "ABCG1", "value": "increased"},
      {"measurement": "capacity of plasma to dissolve cholesterol crystals (CCDC)", "setting": "[1]", "value": "increased capacity to dissolve cholesterol crystals"},
      {"measurement": "capability of blood plasma to dissolve cholesterol crystals (CCDC)", "setting": "[2]", "value": "increased capability of blood plasma to dissolve cholesterol crystals"},
      {"measurement": "plasma levels of 24S-hydroxycholesterol", "setting": "[3]", "value": "increased"},
      {"measurement": "plasma levels of 27-hydroxycholesterol", "setting": "[3]", "value": "increased"},
      {"measurement": "total cholesterol levels", "setting": "[3]; plasma", "value": "remained stable"}
    ]}
  ]
}
